Measured values as given in BigSolDB 2.1.

CC1=NN(c2ccccc2)C(=O)C1
solubility (mole fraction)
Details | in 2,4-dimethylphenol | in DMSO | in NMP | in diglyme | in morpholine-4-carbaldehyde | in tetraglyme | in triglyme
298.15 K | 0.0188 | 0.0758 | 0.0383 | 0.0205 | 0.0111 | 0.0463 | 0.0153
303.15 K | 0.0282 | 0.122 | 0.0496 | 0.0269 | 0.0146 | 0.0863 | 0.022
308.15 K | 0.0408 | 0.201 | 0.0694 | 0.0333 | 0.0176 | 0.131 | 0.0311
313.15 K | 0.0565 | 0.298 | 0.0861 | 0.0416 | 0.0217 | 0.212 | 0.0457
